Laboratory results: patent US10501449B2 (priority 2018, dated 2019)
Where two headings read alike, the source gives them in different places.

What was measured:
hROMK (human Kir1.1) [1] = biological target: T1, hROMK (human Kir1.1) (Homo sapiens (Human), UniProt P48048); experiment: cell-based; settings: CHO T-Rex hROMK stable cell line; thallium flux; 10-point concentration response curve; read-out: Human ROMK Th Flux IC50
hROMK (human Kir1.1) [2] = biological target: T1, hROMK (human Kir1.1); experiment: cell-based; type: cell-based; settings: whole-cell manual patch clamp, CHO T-Rex hROMK stable cell line, voltage step to -120 mV, Ba2+-subtracted hROMK current; read-out: ROMK EP IC50
Protocol: ROMK Manual Patch Clamp Assay
Cell culture conditions: Cells were maintained in conditions similar to those for Thallium flux assay. hROMK channel expression was induced by adding 0.6 μg/ml of Doxycycline 16-24 hrs prior to the experiments. On the day of experiment, the cells were dissociated using Versene, resuspended in growth media and plated onto coverslips 15 minutes prior to use.
Electrophysiology: The coverslip plated with cells was placed in the experiment chamber perfused with bath solution composed of (in mM): 135 NaCl, 5 KCl, 2 CaCl2, 1 MgCl2, 10 HEPES, 5 Glucose (pH 7.4). Patch pipettes with resistance between 2-5 Megaohms, when filled with a solution containing (in mM): 135 KCl, 1 EGTA, 1 MgCl2, 10 HEPES, 2 Na2ATP (pH 7.3), were used to form gigaseals. The cells were voltage clamped at −75 mV in whole-cell configuration using an Axopatch 200b or Multiclamp 700b (Molecular Devices) amplifier controlled by pClamp Software (Molecular Devices). The current was recorded by applying a voltage step to −120 mV every 10 seconds. […] At the end of the experiment, the cells were perfused with bath solution containing 2 mM Ba^2+ to isolate the contribution of hROMK current.
Data analysis: Raw current values (5 traces each for control, different compound concentration and Ba^2+ treatment groups) were exported from Clampfit into Microsoft Excel where the current remaining after application of Ba^2+ was subtracted from raw current to obtain hROMK specific current.

hERG channels = hERG channels (Homo sapiens (Human), UniProt Q12809); experiment: hERG Manual Patch Clamp Assay; type: cell-based; settings: human, HEK 293 cells stably expressing hERG channels, pH 7.4, 1 uM, read-out: hERG EP % Inh @ 1 uM
hERG channels, sequence (Q12809 whole entry): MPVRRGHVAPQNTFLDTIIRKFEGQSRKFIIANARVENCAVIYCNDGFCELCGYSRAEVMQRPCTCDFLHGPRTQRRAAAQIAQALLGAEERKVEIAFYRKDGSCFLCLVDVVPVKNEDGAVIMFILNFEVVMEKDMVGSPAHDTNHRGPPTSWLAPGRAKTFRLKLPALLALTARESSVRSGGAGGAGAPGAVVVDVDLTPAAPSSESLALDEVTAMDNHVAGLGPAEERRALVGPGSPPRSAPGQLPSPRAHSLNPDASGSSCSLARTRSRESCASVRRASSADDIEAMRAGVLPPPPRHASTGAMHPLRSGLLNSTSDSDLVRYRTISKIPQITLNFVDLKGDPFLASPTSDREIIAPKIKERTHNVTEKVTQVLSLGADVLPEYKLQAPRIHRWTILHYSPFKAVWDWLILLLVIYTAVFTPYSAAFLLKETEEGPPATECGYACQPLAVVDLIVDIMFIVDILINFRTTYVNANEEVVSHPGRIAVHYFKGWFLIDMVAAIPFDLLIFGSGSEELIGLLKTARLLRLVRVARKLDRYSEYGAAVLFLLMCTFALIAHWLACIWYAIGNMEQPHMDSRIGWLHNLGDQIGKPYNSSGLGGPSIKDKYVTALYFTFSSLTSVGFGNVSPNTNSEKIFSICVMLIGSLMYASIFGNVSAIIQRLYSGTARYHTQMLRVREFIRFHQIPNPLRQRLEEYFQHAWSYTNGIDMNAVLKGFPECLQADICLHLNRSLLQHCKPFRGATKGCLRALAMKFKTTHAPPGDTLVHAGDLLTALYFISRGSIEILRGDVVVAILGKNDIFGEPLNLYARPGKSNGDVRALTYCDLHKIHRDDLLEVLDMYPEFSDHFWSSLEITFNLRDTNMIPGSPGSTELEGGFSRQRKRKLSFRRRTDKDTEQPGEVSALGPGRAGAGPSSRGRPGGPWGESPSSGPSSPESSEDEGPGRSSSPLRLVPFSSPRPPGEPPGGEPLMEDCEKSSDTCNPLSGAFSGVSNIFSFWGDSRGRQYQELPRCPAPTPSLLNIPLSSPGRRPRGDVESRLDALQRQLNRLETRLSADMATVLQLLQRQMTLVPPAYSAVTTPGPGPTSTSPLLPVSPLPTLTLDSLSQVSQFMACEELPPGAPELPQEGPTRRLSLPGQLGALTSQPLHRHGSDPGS
Protocol: hERG electrophysiology assay: The experimental compounds were assessed for hERG activity on HEK 293 cells stably expressing hERG channels using patch clamp technique. Coverslips plated with hERG expressing cells were placed in the experimental chamber and were perfused with a solution composed of (in mM): 140 NaCl, 4 KCl, 1.8 CaCl2, 1 MgCl2, 10 Glucose, 10 HEPES (pH 7.4, NaOH) at room temperature. Borosilicate patch pipettes had tip resistances of 2-4 Mohms when filled with an internal solution containing: 130 KCl, 1 MgCl2, 1 CaCl2, 10 EGTA, 10 HEPES, 5 ATP-K2 (pH 7.2, KOH). The cells were clamped at −80 mV in whole cell configuration using an Axopatch 200B (Axon instruments, Union City, Calif.) patch clamp amplifier controlled by pClamp (Axon instruments) software. Upon formation of a gigaseal, the following voltage protocol was repeatedly (0.05 Hz) applied to record tail currents: depolarization step from −80 mV to +20 mV for 2 seconds followed by a hyperpolarization step to −65 mV (3 seconds) to elicit tail currents. Compounds were applied after stabilization of tail current. First, tail currents were recorded in presence of extracellular solution alone (control) and subsequently, in extracellular solution containing increasing compound concentrations. Each compound concentration was applied for 2-5 minutes. The percentage inhibition at each concentration was calculated as reduction in peak tail current with respect to the peak tail current recorded in the presence of control solution. Data analysis was performed in a custom made template. The percent inhibitions at different concentrations were plotted to obtain a concentration response curve, which was subsequently fitted with a four parameter equation to calculate hERG IC50 value.

T1 sequence (P48048 whole entry): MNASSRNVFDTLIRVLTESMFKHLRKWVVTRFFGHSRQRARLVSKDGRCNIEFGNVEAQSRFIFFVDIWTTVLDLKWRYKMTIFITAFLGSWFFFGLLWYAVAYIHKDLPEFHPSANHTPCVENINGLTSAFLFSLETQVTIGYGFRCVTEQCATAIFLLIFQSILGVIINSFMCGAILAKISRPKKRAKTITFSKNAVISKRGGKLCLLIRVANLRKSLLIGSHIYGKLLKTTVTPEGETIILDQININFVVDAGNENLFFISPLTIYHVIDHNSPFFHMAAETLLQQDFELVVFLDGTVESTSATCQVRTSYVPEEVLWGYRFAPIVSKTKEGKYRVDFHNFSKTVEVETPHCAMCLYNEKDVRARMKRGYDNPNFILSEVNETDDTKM

`COc1cc(-n2ncc(CN3CCN[C@H](c4ccc5c(c4C)COC5=O)C3)n2)ncc1C#N` [Example 168-I, (R)-4-methoxy-6-(4-((3-(4-methyl-1-oxo-1,3-dihydroisobenzofuran-5-yl)piperazin-1-yl)methyl)-2H-1,2,3-triazol-2-yl)nicotinonitrile] showed an IC50 (hROMK (human Kir1.1) [1]) of 20 nM, an IC50 (hROMK (human Kir1.1) [2]) of 29 nM and an inhibition at 1 µM (hERG channels) of 22%.
`Cc1cc(-n2cc(CN3CCO[C@H](c4ccc5c(c4C)COC5=O)C3)cn2)ncc1C#N` [Example 1-I, (R)-4-methyl-6-(4-((2-(4-methyl-1-oxo-1,3-dihydroisobenzofuran-5-yl)morpholino)methyl)-1H-pyrazol-1-yl)nicotinonitrile] gave an IC50 (hROMK (human Kir1.1) [1]) of 14 nM, an IC50 (hROMK (human Kir1.1) [2]) of 11 nM and an inhibition at 1 µM (hERG channels) of 26%.
`COc1nc(-n2cc(CN3C[C@@H](c4ccc5c(c4C)COC5=O)N[C@@H](C)C3)nc2C)ncc1C#N` [Example 167-I, 4-methoxy-2-(2-methyl-4-(((3S,5R)-3-methyl-5-(4-methyl-1-oxo-1,3-dihydroisobenzofuran-5-yl)piperazin-1-yl)methyl)-1H-imidazol-1-yl)pyrimidine-5-carbonitrile] was tested, and the IC50 (hROMK (human Kir1.1) [1]) was 26 nM, the IC50 (hROMK (human Kir1.1) [2]) was 18 nM and the inhibition at 1 µM (hERG channels) was 11%.
Work on `Cc1nccc(-n2cc(CN3C[C@@H](c4ccc5c(c4C)COC5=O)N[C@@H](C)C3)n(C)c2=O)n1` [Example 173-I, 3-methyl-4-(((3S,5R)-3-methyl-5-(4-methyl-1-oxo-1,3-dihdyroisobenzofuran-5-yl)piperazin-1-yl)methyl)-1-(2-methylpyrimidin-4-yl)-1,3-dihydro-2H-imidazol-2-one] yielded an IC50 (hROMK (human Kir1.1) [1]) of 55 nM, an IC50 (hROMK (human Kir1.1) [2]) of 21 nM and an inhibition at 1 µM (hERG channels) of 4%.
`Cc1c([C@@H]2CN(Cc3ccc(-n4cnc(C#N)c4)nc3)CCN2)ccc2c1COC2=O` [Example 65-I, (R)-1-(5-((3-(4-methyl-1-oxo-1,3-dihydroiso-benzofuran-5-yl)piper-azin-1-yl)methyl)pyri-din-2-yl)-1H-imidazole-4-carbonitrile] showed an IC50 (hROMK (human Kir1.1) [1]) of 14 nM, an IC50 (hROMK (human Kir1.1) [2]) of 9.8 nM and an inhibition at 1 µM (hERG channels) of 21%.
In the case of `Cc1cc(-n2cc(CN3CCN[C@H](c4ccc5c(c4C)COC5=O)C3)nn2)ncc1C#N` [Example 23-I, (R)-4-methyl-6-(4-((3-(4-methyl-1-oxo-1,3-dihydroisobenzofuran-5-yl)piperazin-1-yl)methyl)-1H-1,2,3-triazol-1-yl)nicotinonitrile], the IC50 (hROMK (human Kir1.1) [1]) is reported as 30 nM, the IC50 (hROMK (human Kir1.1) [2]) is reported as 4.9 nM and the inhibition at 1 µM (hERG channels) is reported as 12%.
`Cc1cc(-n2cc(CN3CC(C)O[C@H](c4ccc5c(c4C)COC5=O)C3)cn2)ncc1C#N` (stereo partly drawn) [Example 240-I, 4-methyl-6-(4-(((6R)-2-methyl-6-(4-methyl-1-oxo-1,3-dihydroisobenzofuran-5-yl)morpholino)methyl)-1H-pyrazol-1-yl)nicotinonitrile] showed an IC50 (hROMK (human Kir1.1) [1]) of 42 nM, an IC50 (hROMK (human Kir1.1) [2]) of 34 nM and an inhibition at 1 µM (hERG channels) of 8.3%.
For `Cc1cc(-c2cc(CN3C[C@@H](c4ccc5c(c4C)COC5=O)N[C@@H](C)C3)no2)ncc1C#N` [Example 210-I, 4-methyl-6-(3-(((3S,5R)-3-methyl-5-(4-methyl-1-oxo-1,3-dihydroisobenzofuran-5-yl)piperazin-1-yl)methyl)isoxazol-5-yl)nicotinonitrile], the IC50 (hROMK (human Kir1.1) [1]) was 41 nM, the IC50 (hROMK (human Kir1.1) [2]) was 20 nM and the inhibition at 1 µM (hERG channels) was 5.2%.
Compound `Cc1c([C@@H]2CN(Cc3cnn(-c4ccnc(C(F)F)c4)c3)C[C@H](C)N2)ccc2c1COC2=O` [Example 127-I, 5-((2R,6S)-4-((1-(2-(difluoromethyl)pyridin-4-yl)-1H-pyrazol-4-yl)methyl)-6-methylpiperazin-2-yl)-4-methylisobenzofuran-1(3H)-one] has an IC50 (hROMK (human Kir1.1) [1]) of 21 nM, an IC50 (hROMK (human Kir1.1) [2]) of 14 nM and an inhibition at 1 µM (hERG channels) of 16%.
With `COc1cc(-n2ncc(CN3C[C@@H](c4ccc5c(c4C)COC5=O)N[C@@H](C)C3)n2)ncc1C#N` [Example 107-I, 4-methoxy-6-(4-(((3S,5R)-3-methyl-5-(4-methyl-1-oxo-1,3-dihydroisobenzofur-an-5-yl)piperazin-1-yl)methyl)-2H-1,2,3-triazol-2-yl)nicotinonitrile] the IC50 (hROMK (human Kir1.1) [1]) was 26 nM, the IC50 (hROMK (human Kir1.1) [2]) was 18 nM and the inhibition at 1 µM (hERG channels) was 13%.
`Cc1cc(-n2ncc(CN3CCN[C@H](c4ccc5c(c4C)COC5=O)C3)n2)nc(C)c1C#N` [Example 184-I, (R)-2,4-dimethyl-6-(4-((3-(4-methyl-1-oxo-1,3-dihydroisobenzofuran-5-yl)piperazin-1-yl)methyl)-2H-1,2,3-triaozl-2-yl)nicotinonitrile] gave an IC50 (hROMK (human Kir1.1) [1]) of 30 nM, an IC50 (hROMK (human Kir1.1) [2]) of 10 nM and an inhibition at 1 µM (hERG channels) of 6.1%.
`Cc1cc(-n2cc(CN3C[C@@H](c4ccc5c(c4C)COC5=O)N[C@@H](C)C3)cn2)ccn1` [Example 102-I, 4-methyl-5-((2R,6S)-6-methyl-4-((1-(2-methylpyridin-4-yl)-1H-pyrazol-4-yl)methyl)piperazin-2-yl)isobenzofuran-1(3H)-one] gave an IC50 (hROMK (human Kir1.1) [1]) of 48 nM, an IC50 (hROMK (human Kir1.1) [2]) of 17 nM and an inhibition at 1 µM (hERG channels) of 5.6%.
`COc1cc(-n2ncc(CN3CCN[C@H](c4ccc5c(c4C)COC5=O)C3)n2)nc(C)c1C#N` [Example 188-I, (R)-4-methoxy-2-methyl-6-(4-((3-(4-methyl-1-oxo-1,3-dihydroisobenzofuran-5-yl)piperazin-1-yl)methyl)-2H-1,2,3-triazol-2-yl)nicotinonitrile] was tested, and the IC50 (hROMK (human Kir1.1) [1]) was 37 nM, the IC50 (hROMK (human Kir1.1) [2]) was 18 nM and the inhibition at 1 µM (hERG channels) was 18%.
For `COc1nc(-n2cc(CN3C[C@@H](c4ccc5c(c4C)COC5=O)N[C@@H](C)C3)cn2)ncc1C#N` [Example 99-I, 4-methoxy-2-(4-(((3S,5R)-3-methyl-5-(4-methyl-1-oxo-1,3-dihydroisobenzofur-an-5-yl)piperazin-1-yl)methyl)-1H-pyrazol-1-yl)pyrimidine-5-carbonitrile], the IC50 (hROMK (human Kir1.1) [1]) was 33 nM, the IC50 (hROMK (human Kir1.1) [2]) was 29 nM and the inhibition at 1 µM (hERG channels) was 9.6%.
`Cc1ncn(-c2ccc(CN3CCN[C@H](c4ccc5c(c4C)COC5=O)C3)cn2)n1` [Example 67-I, (R)-4-methyl-5-(4-((6-(3-methyl-1H-1,2,4-tri-azol-1-yl)pyridin-3-yl)methyl)piperazin-2-yl) isobenzofuran-1(3H)-one] gave an IC50 (hROMK (human Kir1.1) [1]) of 110 nM, an IC50 (hROMK (human Kir1.1) [2]) of 29 nM and an inhibition at 1 µM (hERG channels) of 7.1%.
Work on `Cc1nc(-n2ncc(CN3C[C@@H](c4ccc5c(c4C)COC5=O)N[C@@H](C)C3)n2)ncc1C#N` [Example 100-I, 4-methyl-2-(4-(((3S,5R)-3-methyl-5-(4-methyl-1-oxo-1,3-dihydroisobenzofur-an-5-yl)piperazin-1-yl)methyl)-2H-1,2,3-triazol-2-yl)pyrimidine-5-carbonitrile] yielded an IC50 (hROMK (human Kir1.1) [1]) of 40 nM, an IC50 (hROMK (human Kir1.1) [2]) of 25 nM and an inhibition at 1 µM (hERG channels) of 3.6%.
With `Cc1cc(-n2nc(C)c(CN3CC(c4ccc5c(c4C)COC5=O)NC(C)(C)C3)n2)ncc1C#N` (single isomer, unassigned) [Example 175-I, 6-(4-((3,3-dimethyl-5-(4-methyl-1-oxo-1,3-dihydroisobenzofuran-5-yl)piperazin-1-yl)methyl)-5-methyl-2H-1,2,3-triazol-2-yl)-4-methylnicotinonitrile] the IC50 (hROMK (human Kir1.1) [1]) was 31 nM, the IC50 (hROMK (human Kir1.1) [2]) was 17 nM and the inhibition at 1 µM (hERG channels) was 15%.
`COc1cc(-n2cnc(CN3C[C@@H](c4ccc5c(c4C)COC5=O)N[C@@H](C)C3)c2)ccn1` [Example 126-I, 5-((2R,6S)-4-((1-(2-methoxypyridin-4-yl)-1H-imidazol-4-yl)methyl)-6-methylpiperazin-2-yl)-4-methylisobenzofuran-1(3H)-one] showed an IC50 (hROMK (human Kir1.1) [1]) of 34 nM, an IC50 (hROMK (human Kir1.1) [2]) of 17 nM and an inhibition at 1 µM (hERG channels) of 7.8%.
`Cc1cc(-c2nnc(CN3CC(c4ccc5c(c4C)COC5=O)NC(C)(C)C3)o2)ncc1C#N` (single isomer, unassigned) [Example 267-I, 6-(5-((3,3-dimethyl-5-(4-methyl-1-oxo-1,3-dihydroisobenzofuran-5-yl)piperazin-1-yl)methyl)-1,3,4-oxadiazol-2-yl)-4-methylnicotinonitrile] gave an IC50 (hROMK (human Kir1.1) [1]) of 16 nM, an IC50 (hROMK (human Kir1.1) [2]) of 17 nM and an inhibition at 1 µM (hERG channels) of 9.9%.
`COc1cc(-n2cnc(CN3C[C@@H](c4ccc5c(c4C)COC5=O)N[C@@H](C)C3)c2)ccc1C#N` [Example 101-I, 2-methoxy-4-(4-(((3S,5R)-3-methyl-5-(4-methyl-1-oxo-1,3-dihydroisobenzofur-an-5-yl)piperazin-1-yl)methyl)-1H-imidazol-1-yl)benzonitrile] gave an IC50 (hROMK (human Kir1.1) [1]) of 26 nM, an IC50 (hROMK (human Kir1.1) [2]) of 34 nM and an inhibition at 1 µM (hERG channels) of 3%.
`CCc1nn(-c2ncc(CN3CCN[C@H](c4ccc5c(c4C)COC5=O)C3)cn2)cc1C#N` [Example 228-I, (R)-3-ethyl-1-(5-((3-(4-methyl-1-oxo-1,3-dihydroisobenzofuran-5-yl)piperazin-1-yl)methyl)pyrimidin-2-yl)-1H-pyrazole-4-carbonitrile] showed an IC50 (hROMK (human Kir1.1) [1]) of 14 nM, an IC50 (hROMK (human Kir1.1) [2]) of 20 nM and an inhibition at 1 µM (hERG channels) of 16%.
With `Cc1cc(-n2ncc(C(C)N3CCN[C@H](c4ccc5c(c4C)COC5=O)C3)n2)ncc1C#N` (single isomer, unassigned) [Example 121-I] the IC50 (hROMK (human Kir1.1) [1]) was 31 nM, the IC50 (hROMK (human Kir1.1) [2]) was 740 nM and the inhibition at 1 µM (hERG channels) was 10%.
For `Cc1cc(-n2cc(CN3C[C@H](CO)N(C)[C@H](c4ccc5c(c4C)COC5=O)C3)cn2)ncc1C#N` [Example 195-I, 6-(4-(((3R,5R)-3-(hydroxymethyl)-4-methyl-5-(4-methyl-1-oxo-1,3-dihydroisobenzofuran-5-yl)piperaizn-1-yl)methyl)-1H-pyrazol-1-yl)-4-methylnicotinonitrile], the IC50 (hROMK (human Kir1.1) [1]) was 66 nM, the IC50 (hROMK (human Kir1.1) [2]) was 79 nM and the inhibition at 1 µM (hERG channels) was 5.9%.
`Cc1c([C@@H]2CN(Cc3ccc(-c4ccc(S(C)(=O)=O)nc4)nc3)C[C@H](C)N2)ccc2c1COC2=O` [Example 165-I, 4-methyl-5-((2R,6S)-6-methyl-4-((6′-(methylsulfonyl)-[2,3′-bipyridin]-5-yl)methyl)piperazin-2-yl)isobenzofuran-1(3H)-one] showed an IC50 (hROMK (human Kir1.1) [1]) of 67 nM, an IC50 (hROMK (human Kir1.1) [2]) of 39 nM and an inhibition at 1 µM (hERG channels) of 5.4%.
